In patent publication US9873693B2 (Sunesis Pharmaceuticals, Inc., priority 2006, dated 2018):
Like-named read-outs stand apart in the source and are kept apart here.

Legend:
[1] = test system: phospho-akt (Thr308); assay: phospho-akt (Thr308) MSD ELISA in PC-3 cells; format: cell-based; conditions: Homo sapiens; for EC50: PC-3, 2 h; for inhibition at 1 µM / inhibition at 10 µM: read-out: Percent Inhibition of phospho-Akt (308) By MSD ELISA
Procedure: PC-3 cells were harvested by trypsin and counted. Cells were plated in coated 96-well flat bottom plates (plate 15,000 cells/well in 100 ul growth media (10% FBS, 1× pen-strep) an place in an incubator overnight.
Subject inhibitors were stocked at 50 mM, then diluted to 30 mM (4.8 μl cpd plus […] DMSO) in 100% DMSO. Three-fold dilutions were performed from 30 mM stock. (4 μl into 8 ul 100% DMSO). Aliquots of 1.0 μl of inhibitor solution were transferred into SF Medium (using deep well block).
Control wells were prepared as follows. For DMSO high controls, 1.0 μl of 100% DMSO was added into 1.0 ml SF.
MSD plates were blocked for 1 hour by adding 150 μl of Blocking Solution (3% BSA) to each well. The MSD plates were washed 4× with TBST, and 50 μl lysates were transferred to MSD plate and place on plate shaker shake at 4 degrees O/N, light shaking (speed 3.5). The plate was washed 4× with TBST.
25 μl of Ab detection solution was added to each well. The plate was sealed and incubated 1 hr RT, light shaking (speed 3.5). The plate was washed 4 times with TBST. 150 μl of Read Buffer was added (5 mls 4×MSD Read Buffer+15 mls water). Finally the plate was read immediately on the MSD plate reader.

[2] = target: phosphorylated PDK1 (Homo sapiens (Human), UniProt O15530); assay: PDK1 kinase assay (coupled PDK1/AKT/FAM-crosstide, IMAP); format: biochemical; conditions: 0.5 nM phosphorylated PDK1, 24 μM ATP; read-out: Inhibition of phospo-PDK1 in vitro IC50
[3] = PC-3 cells, 2 hours, no serum, read-out: Inhibition of P308 Akt in cells using MSD EC50
[4] = PC-3 cells, 2 hours, no serum, read-out: Reduction of Cellular Levels of Akt p308 By MSD ELISA (EC50 μM)
[5] = read-out: Inhibition of P308 Akt in cells using MSD EC50

Sequence of phosphorylated PDK1 (O15530 51-360): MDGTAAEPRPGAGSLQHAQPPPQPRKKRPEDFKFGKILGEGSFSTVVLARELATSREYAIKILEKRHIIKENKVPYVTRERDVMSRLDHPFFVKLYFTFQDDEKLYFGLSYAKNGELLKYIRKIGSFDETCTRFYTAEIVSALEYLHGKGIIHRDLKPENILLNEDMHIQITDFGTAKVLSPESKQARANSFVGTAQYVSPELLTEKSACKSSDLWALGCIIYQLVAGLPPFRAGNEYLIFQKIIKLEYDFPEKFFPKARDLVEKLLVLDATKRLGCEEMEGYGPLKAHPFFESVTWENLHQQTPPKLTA

O=C(NCc1cccc(-c2c[nH]c3ncccc23)c1)c1cccn(Cc2ccc(F)c(F)c2)c1=O [Cpd 126]
EC50 [1, 3]: 1 to 5 µM
EC50 [1, 4]: < 1 µM
IC50 [2]: < 0.5 µM

O=C(NCc1nccc(-c2c[nH]c3ncccc23)n1)c1cccn(Cc2ccc(F)c(F)c2)c1=O [Cpd 146]
EC50 [1, 3]: > 5 µM
EC50 [1, 4]: 1 to 5 µM
IC50 [2]: < 0.5 µM

O=C(NC(COc1ccc2[nH]c(=O)[nH]c2c1)c1ccc(F)cc1)c1cccn(Cc2ccc(F)c(F)c2)c1=O (centres unmarked) [Cpd 147]
EC50 [1, 3]: < 1 µM
EC50 [1, 4]: < 1 µM
IC50 [2]: < 0.5 µM

COC(=O)[C@H](COc1ccc2[nH]c(=O)[nH]c2c1)NC(=O)c1cccn(Cc2cc(F)c(F)c(F)c2)c1=O [Cpd 153]
EC50 [1, 3]: < 1 µM
IC50 [2]: < 0.5 µM

O=C(NC/C=C/c1ccc2[nH]c(=O)[nH]c2c1)c1cccn(Cc2ccc(F)c(F)c2)c1=O [Cpd 160]
EC50 [1, 3]: > 5 µM
IC50 [2]: < 0.5 µM

O=C(NCc1cc(-c2c[nH]c3ncccc23)ccn1)c1cccn(Cc2ccc(F)c(F)c2)c1=O [Cpd 164]
EC50 [1, 3]: < 1 µM
IC50 [2]: < 0.5 µM

O=C(NCc1cc(-c2c[nH]c3ncccc23)c[n+]([O-])c1)c1cccn(Cc2ccc(F)c(F)c2)c1=O [Cpd 165]
EC50 [1, 3]: > 5 µM
IC50 [2]: < 0.5 µM

O=C(N[C@@H](COc1ccc2[nH]c(=O)[nH]c2c1)c1ccccc1)c1cccn(Cc2cc(F)c(F)c(F)c2)c1=O [Cpd 174]
EC50 [1, 5]: 1 to 5 µM
IC50 [2]: < 0.5 µM

O=C(N[C@@H](COc1ccc2[nH]c(=O)[nH]c2c1F)c1ccccc1)c1cccn(Cc2cc(F)c(F)c(F)c2)c1=O [Cpd 177]
EC50 [1, 3]: < 1 µM
IC50 [2]: < 0.5 µM

CNC(=O)c1cc(-c2c[nH]c3ncccc23)cc(CNC(=O)c2cccn(Cc3ccc(F)c(F)c3)c2=O)n1 [Cpd 180]
EC50 [1, 3]: < 1 µM
IC50 [2]: < 0.5 µM

CN(C)C(=O)c1cc(-c2c[nH]c3ncccc23)cc(CNC(=O)c2cccn(Cc3ccc(F)c(F)c3)c2=O)n1 [Cpd 181]
EC50 [1, 3]: 1 to 5 µM
IC50 [2]: < 0.5 µM

O=C(N[C@@H](/C=C/c1ccc2[nH]c(=O)[nH]c2c1)c1ccccc1)c1cccn(Cc2cc(F)c(F)c(F)c2)c1=O [Cpd 183]
EC50 [1, 5]: 1 to 5 µM
IC50 [2]: < 0.5 µM

O=C(NCc1noc(-c2c[nH]c3ncccc23)n1)c1cc([N+](=O)[O-])cn(Cc2cc(F)c(F)c(F)c2)c1=O [Cpd 184]
EC50 [1, 3]: 1 to 5 µM
IC50 [2]: < 0.5 µM

O=C(NC(COc1ccc2[nH]c(=O)[nH]c2c1)c1ccc(OCc2ccccc2)cc1)c1cccn(Cc2cc(F)c(F)c(F)c2)c1=O (centres unmarked) [Cpd 186]
EC50 [1, 5]: > 5 µM
IC50 [2]: < 0.5 µM

O=C(NC(COc1ccc2[nH]c(=O)[nH]c2c1)c1ccc(O)cc1)c1cccn(Cc2cc(F)c(F)c(F)c2)c1=O (centres unmarked) [Cpd 188]
EC50 [1, 3]: 1 to 5 µM
IC50 [2]: < 0.5 µM

CC(=O)Oc1ccc(C(COc2ccc3[nH]c(=O)[nH]c3c2)NC(=O)c2cccn(Cc3cc(F)c(F)c(F)c3)c2=O)cc1 (centres unmarked) [Cpd 189]
EC50 [1, 3]: < 1 µM
IC50 [2]: < 0.5 µM

O=C(N[C@@H](COc1ccc2[nH]c(=O)[nH]c2c1)c1ccsc1)c1cccn(Cc2ccc(F)c(F)c2)c1=O [Cpd 190]
EC50 [1, 3]: < 1 µM
IC50 [2]: < 0.5 µM

N#Cc1cc(-c2c[nH]c3ncccc23)cc(CNC(=O)c2cccn(Cc3ccc(F)c(F)c3)c2=O)n1 [Cpd 191]
EC50 [1, 5]: < 1 µM
IC50 [2]: < 0.5 µM

O=C(N[C@@H](COc1ccc2[nH]c(=O)[nH]c2c1)c1cccs1)c1cccn(Cc2ccc(F)c(F)c2)c1=O [Cpd 192]
EC50 [1, 3]: < 1 µM
IC50 [2]: < 0.5 µM

O=C1Nc2cc(/C=C/CNC(=O)c3cccn(Cc4cc(F)c(F)c(F)c4)c3=O)ccc2/C1=C\c1cccnc1 [Cpd 194]
EC50 [1, 3]: < 1 µM
IC50 [2]: < 0.5 µM

O=C1Nc2cc(/C=C/CNC(=O)c3cccn(Cc4cc(F)c(F)c(F)c4)c3=O)ccc2/C1=C/c1ncc[nH]1 [Cpd 195]
EC50 [1, 3]: < 1 µM
IC50 [2]: < 0.5 µM

O=C(NCc1cc(-c2c[nH]c3ncccc23)cc(CO)n1)c1cccn(Cc2ccc(F)c(F)c2)c1=O [Cpd 196]
EC50 [1, 3]: 1 to 5 µM
IC50 [2]: < 0.5 µM

O=C1Nc2cc(/C=C/CNC(=O)c3cc(Cl)cn(Cc4cc(F)c(F)c(F)c4)c3=O)ccc2/C1=C/c1ncc[nH]1 [Cpd 197]
EC50 [1, 3]: < 1 µM
IC50 [2]: < 0.5 µM

O=C1Nc2cc(/C=C/CNC(=O)c3cccn(Cc4cc(F)c(F)c(F)c4)c3=O)ccc2/C1=C/c1cccs1 [Cpd 198]
EC50 [1, 3]: 1 to 5 µM
IC50 [2]: < 0.5 µM

O=C1Nc2cc(/C=C/CNC(=O)c3cccn(Cc4ccc(F)c(F)c4)c3=O)ccc2/C1=C/c1ncc[nH]1 [Cpd 199]
EC50 [1, 3]: < 1 µM
IC50 [2]: < 0.5 µM

O=C1Nc2cc(/C=C/CNC(=O)c3cccn(Cc4ccc(F)c(F)c4)c3=O)ccc2/C1=C\c1cccnc1 [Cpd 200]
EC50 [1, 3]: 1 to 5 µM
IC50 [2]: < 0.5 µM

O=C1Nc2cc(/C=C/CNC(=O)c3cccn(Cc4cc(F)c(F)c(F)c4)c3=O)ccc2/C1=C\c1ccc(O)cc1 [Cpd 201]
EC50 [1, 3]: < 1 µM
IC50 [2]: < 0.5 µM

O=C1Nc2cc(/C=C/CNC(=O)c3cccn(Cc4cc(F)c(F)c(F)c4)c3=O)ccc2/C1=C\c1nccs1 [Cpd 202]
EC50 [1, 3]: 1 to 5 µM
IC50 [2]: < 0.5 µM

O=C1Nc2cc(/C=C/CNC(=O)c3cccn(Cc4cc(F)c(F)c(F)c4)c3=O)ccc2/C1=C/c1nccs1 [Cpd 203]
EC50 [1, 3]: 1 to 5 µM
IC50 [2]: < 0.5 µM

CC(C)=C1C(=O)Nc2cc(/C=C/CNC(=O)c3cccn(Cc4cc(F)c(F)c(F)c4)c3=O)ccc21 [Cpd 204]
EC50 [1, 3]: 1 to 5 µM
IC50 [2]: < 0.5 µM

CC(C)/C=C1/C(=O)Nc2cc(/C=C/CNC(=O)c3cccn(Cc4cc(F)c(F)c(F)c4)c3=O)ccc21 [Cpd 205]
EC50 [1, 3]: > 5 µM
IC50 [2]: < 0.5 µM

O=C(NCc1cc(-c2c[nH]c3ncccc23)cc(C(F)F)n1)c1cccn(Cc2ccc(F)c(F)c2)c1=O [Cpd 208]
EC50 [1, 3]: < 1 µM
IC50 [2]: < 0.5 µM

O=C1Nc2cc(/C=C/CNC(=O)c3cccn(Cc4cc(F)c(F)c(F)c4)c3=O)ccc2/C1=C\c1ccccc1 [Cpd 209]
EC50 [1, 3]: > 5 µM
IC50 [2]: < 0.5 µM

O=C1Nc2cc(/C=C/CNC(=O)c3cccn(Cc4cc(F)c(F)c(F)c4)c3=O)ccc2/C1=C/c1cnc[nH]1 [Cpd 212]
EC50 [1, 3]: 1 to 5 µM
IC50 [2]: < 0.5 µM

CNC(=O)c1cnc2[nH]cc(-c3cccc(CNC(=O)c4cccn(Cc5ccc(F)c(F)c5)c4=O)c3)c2c1 [Cpd 239]
EC50 [1, 3]: 1 to 5 µM
EC50 [1, 4]: < 1 µM
IC50 [2]: < 0.5 µM

O=C1CCc2c(ncnc2-c2cccc(CNC(=O)c3cccn(Cc4ccc(F)c(F)c4)c3=O)c2)N1 [Cpd 240]
EC50 [1, 4]: 1 to 5 µM
inhibition at 1 µM ([1]; PC-3 cells): < 25%
inhibition at 10 µM ([1]; PC-3 cells): < 25%
IC50 [2]: > 10 µM

O=C(NCc1cccc(-c2c[nH]c3cccnc23)c1)c1cccn(Cc2ccc(F)c(F)c2)c1=O [Cpd 241]
inhibition at 1 µM ([1]; PC-3 cells): < 25%
inhibition at 10 µM ([1]; PC-3 cells): 25 to 75%
IC50 [2]: 0.5 to 10 µM

NCc1cnc2[nH]cc(-c3cccc(CNC(=O)c4cccn(Cc5ccc(F)c(F)c5)c4=O)c3)c2c1 [Cpd 243]
EC50 [1, 3]: < 1 µM
EC50 [1, 4]: 1 to 5 µM
IC50 [2]: < 0.5 µM

N#Cc1cnc2[nH]cc(-c3cccc(CNC(=O)c4cccn(Cc5ccc(F)c(F)c5)c4=O)c3)c2c1 [Cpd 244]
EC50 [1, 3]: < 1 µM
EC50 [1, 4]: < 1 µM
IC50 [2]: < 0.5 µM

O=C(Nc1n[nH]c2ccc(-c3c[nH]c4ncccc34)cc12)c1cccn(Cc2ccc(F)c(F)c2)c1=O [Cpd 245]
EC50 [1, 3]: 1 to 5 µM
IC50 [2]: < 0.5 µM

O=C(NCc1cc(-c2c[nH]c3ncccc23)ccc1F)c1cccn(Cc2ccc(F)c(F)c2)c1=O [Cpd 278]
inhibition at 1 µM ([1]; PC-3 cells): < 25%
inhibition at 10 µM ([1]; PC-3 cells): 25 to 75%
IC50 [2]: < 0.5 µM

O=C(N[C@H](CO)c1nnc(-c2c[nH]c3ncccc23)o1)c1cccn(Cc2ccc(F)c(F)c2)c1=O [Cpd 284]
EC50 [1, 3]: 1 to 5 µM
EC50 [1, 4]: 1 to 5 µM
IC50 [2]: < 0.5 µM
